Experimental data reported in ChEMBL document CHEMBL1155360, “Structural characteristics of flavanones and flavones from Cudrania tricuspidata for neuraminidase inhibition” (Bioorg Med Chem Lett, 2009).

Columns and labels:
[1] = Noncompetitive inhibition of Clostridium welchii neuraminidase by Dixon plot; set-up: species or system Clostridium perfringens
[2] = (§1) Inhibition of Clostridium welchii neuraminidase; set-up: species or system Clostridium perfringens
Clostridium perfringens = experiment: as §1

SMILES | Ki [1] [µM] | IC50 [2] [µM] | inhibition (Clostridium perfringens)
CC(C)=CCc1cc([C@@H]2CC(=O)c3c(cc(O)c(CC=C(C)C)c3O)O2)c(O)cc1O | 7.16 | 10.7 | Dose-dependent effect
O=c1c2cc(O)c(O)cc2oc2cc(O)c([C@@H]3O[C@H](CO)[C@@H](O)[C@H](O)[C@H]3O)c(O)c12 [MANGIFERIN] |  | 11.2 | Dose-dependent effect
O=C1C[C@@H](c2ccc(O)cc2O)Oc2cc(O)cc(O)c21 | 7.2 | 8.14 | Dose-dependent effect
CC(C)(O)CCc1c(O)cc(O)c2c1O[C@H](c1cc3c(cc1O)OC(C)(C)C=C3)CC2=O | 0.19 | 0.38 | Dose-dependent effect
O=C1C[C@@H](c2ccc(O)cc2)Oc2cc(O)cc(O)c21 [NARINGENIN] |  | 57.9 | Dose-dependent effect
CC(C)=CCc1c(-c2ccc(O)cc2O)oc2cc3c(c(O)c2c1=O)C=CC(C)(C)O3 [CUDRAFLAVONE B] | 10.8 | 10.1 | Dose-dependent effect
O=C1C[C@@H](c2ccc(O)c(O)c2)Oc2cc(O)cc(O)c21 [ERIODICTYOL] |  | 16 | Dose-dependent effect
CC1(C)C=Cc2c(cc3oc(-c4ccc(O)cc4O)cc(=O)c3c2O)O1 |  | 6.01 | Dose-dependent effect
CC(C)=CC1Oc2cc(O)ccc2-c2oc3cc4c(c(O)c3c(=O)c21)C=CC(C)(C)O4 (stereo not drawn) [CUDRAFLAVONE A] | 44.4 | 29 | Dose-dependent effect
O=c1cc(-c2ccc(O)cc2O)oc2cc(O)cc(O)c12 [NORARTOCARPETIN] | 1.96 | 1.13 | Dose-dependent effect
O=c1cc(-c2ccc(O)c(O)c2)oc2cc(O)cc(O)c12 [LUTEOLIN] |  | 4.6 | Dose-dependent effect
CC(C)=CCc1c(O)cc2c(c1O)C(=O)C[C@@H](c1cc3c(cc1O)OC(C)(C)C=C3)O2 [CUDRAFLAVANONE A] | 2.01 | 1.53 | Dose-dependent effect
O=c1cc(-c2ccc(O)cc2)oc2cc(O)cc(O)c12 [APIGENIN] |  | 22.1 | Dose-dependent effect
